In ChEMBL document CHEMBL5543149, “Discovery of Novel Aryl Triazolone Dihydropyridines (ATDPs) Targeting Highly Conserved Residue W229 as Promising HIV-1 NNRTIs” (J Med Chem, 2024):

Tests used:
[1] = test system: Human immunodeficiency virus 1; test: Antiviral activity against wild type HIV-1 IIIB infected in human MT4 cells assessed as protection against virus-induced cytopathic effect incubated for 5 days by MTT assay; format: functional, organism-based; details: Human immunodeficiency virus 1, IIIB, MT4, 120 h
[2] = Cytotoxicity against human MT4 cells assessed as reduction in cell viability by MTT assay; format: toxicity, cell-based
[3] = Selectivity index, ratio of CC50 for cytotoxicity against human MT4 cells assessed as reduction in cell viability by MTT assay to EC50 for antiviral activity against wild type HIV-1 IIIB infected in human MT4 cells assessed as protection against virus-induced cytopathic effect; format: toxicity, cell-based; details: read-out: Ratio CC50/EC50
[4] = test system: Human immunodeficiency virus 1; test: Antiviral activity against NNRTI-resistant HIV-1 harboring L100I mutant infected in human MT4 cells assessed as protection against virus-induced cytopathic effect by MTT assay; format: functional, organism-based; details: Human immunodeficiency virus 1, MT4
[5] = test system: Human immunodeficiency virus 1; test: Antiviral activity against NNRTI-resistant HIV-1 harboring K103N mutant infected in human MT4 cells assessed as protection against virus-induced cytopathic effect by MTT assay; format: functional, organism-based; details: Human immunodeficiency virus 1, MT4
[6] = test system: Human immunodeficiency virus 1; test: Antiviral activity against NNRTI-resistant HIV-1 harboring Y181C mutant infected in human MT4 cells assessed as protection against virus-induced cytopathic effect by MTT assay; format: functional, organism-based; details: Human immunodeficiency virus 1, MT4
[7] = test system: Human immunodeficiency virus 1; test: Antiviral activity against NNRTI-resistant HIV-1 harboring Y188L mutant infected in human MT4 cells assessed as protection against virus-induced cytopathic effect by MTT assay; format: functional, organism-based; details: Human immunodeficiency virus 1, MT4
[8] = test system: Human immunodeficiency virus 1; test: Antiviral activity against NNRTI-resistant HIV-1 harboring E138K mutant infected in human MT4 cells assessed as protection against virus-induced cytopathic effect by MTT assay; format: functional, organism-based; details: Human immunodeficiency virus 1, MT4
[9] = test system: Human immunodeficiency virus 1; test: Antiviral activity against NNRTI-resistant HIV-1 harboring RES056 mutant infected in human MT4 cells assessed as protection against virus-induced cytopathic effect by MTT assay; format: functional, organism-based; details: Human immunodeficiency virus 1, MT4
[10] = target: Human immunodeficiency virus type 1 reverse transcriptase (Human immunodeficiency virus 1, UniProt Q72547); test: Inhibition of wild type HIV-1 Reverse transcriptase assessed as reduction of biotin-dUTP incorporation into […] using ABTS as substrate preincubated with compound for 1 hr followed by substrate addition in presence of biotin-labeled dNTPs by ELISA analysis

## Cn1c(Cn2ccc(C(F)(F)F)c(Oc3cc(Cl)cc(-c4cnc5ccccc5c4)c3)c2=O)n[nH]c1=O
[1]
  EC50: 436 nM
[2]
  CC50: 58100 nM
[3]
  selectivity ratio: 133

## Cn1c(Cn2ccc(C(F)(F)F)c(Oc3cc(Cl)cc(-c4ccncc4)c3)c2=O)n[nH]c1=O
[1]
  EC50: 15 nM
[2]
  CC50: 70500 nM
[3]
  selectivity ratio: 4700
[4]
  EC50: 12 nM
[5]
  EC50: 22 nM
[6]
  EC50: 40 nM
[7]
  EC50: 1320 nM
[8]
  EC50: 39 nM
[9]
  EC50: 962 nM
[10]
  IC50: 80 nM

## Cn1c(Cn2ccc(C(F)(F)F)c(Oc3cc(Cl)cc(-c4cncnc4)c3)c2=O)n[nH]c1=O
[1]
  EC50: 10 nM
[2]
  CC50: 64700 nM
[3]
  selectivity ratio: 6470
[4]
  EC50: 19 nM
[5]
  EC50: 42 nM
[6]
  EC50: 43 nM
[7]
  EC50: 1480 nM
[8]
  EC50: 25 nM
[9]
  EC50: 91 nM
[10]
  IC50: 40 nM

## Cn1c(Cn2ccc(C(F)(F)F)c(Oc3cc(Cl)cc(-c4ccccc4)c3)c2=O)n[nH]c1=O
[1]
  EC50: 370 nM
[2]
  CC50: 187000 nM
[3]
  selectivity ratio: 505

## Cc1ccc(-c2cc(Cl)cc(Oc3c(C(F)(F)F)ccn(Cc4n[nH]c(=O)n4C)c3=O)c2)cc1
[1]
  EC50: 8 nM
[2]
  CC50: 94200 nM
[3]
  selectivity ratio: 11800
[4]
  EC50: 13 nM
[5]
  EC50: 17 nM
[6]
  EC50: 29 nM
[7]
  EC50: 1350 nM
[8]
  EC50: 37 nM
[9]
  EC50: 344 nM
[10]
  IC50: 30 nM

## Cn1c(Cn2ccc(C(F)(F)F)c(Oc3cc(Cl)cc(-c4ccoc4)c3)c2=O)n[nH]c1=O
[1]
  EC50: 280 nM
[2]
  CC50: 57400 nM
[3]
  selectivity ratio: 205

## Cn1c(Cn2ccc(C(F)(F)F)c(Oc3cc(Cl)cc(-c4ccco4)c3)c2=O)n[nH]c1=O
[1]
  EC50: 190 nM
[2]
  CC50: 59100 nM
[3]
  selectivity ratio: 311

## Cn1c(Cn2ccc(C(F)(F)F)c(Oc3cc(Cl)cc(C(N)=O)c3)c2=O)n[nH]c1=O
[1]
  EC50: 2030 nM
[2]
  CC50: 28500 nM
[3]
  selectivity ratio: 14

## Cn1c(Cn2ccc(C(F)(F)F)c(Oc3cc(Cl)cc(Br)c3)c2=O)n[nH]c1=O
[1]
  EC50: 10 nM
[2]
  CC50: 142000 nM
[3]
  selectivity ratio: 14200
[4]
  EC50: 12 nM
[5]
  EC50: 22 nM
[6]
  EC50: 23 nM
[7]
  EC50: 1340 nM
[8]
  EC50: 28 nM
[9]
  EC50: 225 nM
[10]
  IC50: 30 nM

## Cn1c(Cn2ccc(C(F)(F)F)c(Oc3cc(Cl)cc(-c4ccc(O)cc4)c3)c2=O)n[nH]c1=O
[1]
  EC50: 361 nM
[2]
  CC50: 16200 nM
[3]
  selectivity ratio: 45

## Cn1c(Cn2ccc(C(F)(F)F)c(Oc3cc(Cl)cc(-c4cc5ccccc5s4)c3)c2=O)n[nH]c1=O
[1]
  EC50: 12 nM
[2]
  CC50: 101000 nM
[3]
  selectivity ratio: 8420
[4]
  EC50: 12 nM
[5]
  EC50: 18 nM
[6]
  EC50: 38 nM
[7]
  EC50: 639 nM
[8]
  EC50: 17 nM
[9]
  EC50: 185 nM
[10]
  IC50: 40 nM

## Cn1c(Cn2ccc(C(F)(F)F)c(Oc3cc(Cl)cc(-c4ccc(C#N)cc4)c3)c2=O)n[nH]c1=O
[1]
  EC50: 47 nM
[2]
  CC50: 5130 nM
[3]
  selectivity ratio: 109

## Cn1c(Cn2ccc(C(F)(F)F)c(Oc3cc(Cl)cc(-c4ccc(F)cc4)c3)c2=O)n[nH]c1=O
[1]
  EC50: 195 nM
[2]
  CC50: 31300 nM
[3]
  selectivity ratio: 161

## Cn1c(Cn2ccc(C(F)(F)F)c(Oc3cc(Cl)cc(-c4cccs4)c3)c2=O)n[nH]c1=O
[1]
  EC50: 959 nM
[2]
  CC50: 45800 nM
[3]
  selectivity ratio: 48

## Cn1c(Cn2ccc(C(F)(F)F)c(Oc3cc(Cl)cc(-c4ccsc4)c3)c2=O)n[nH]c1=O
[1]
  EC50: 41 nM
[2]
  CC50: 87200 nM
[3]
  selectivity ratio: 2130

## Cn1c(Cn2ccc(C(F)(F)F)c(Oc3cc(Cl)cc(C(=O)O)c3)c2=O)n[nH]c1=O
[1]
  EC50: 5310 nM
[2]
  CC50: 34200 nM
[3]
  selectivity ratio: 6

## Cn1c(Cn2ccc(C(F)(F)F)c(Oc3cc(Cl)cc(-c4ccc(Cl)cc4)c3)c2=O)n[nH]c1=O
[1]
  EC50: 11 nM
[2]
  CC50: 124000 nM
[4]
  EC50: 14 nM
[5]
  EC50: 19 nM
[6]
  EC50: 30 nM
[7]
  EC50: 1490 nM
[8]
  EC50: 28 nM
[9]
  EC50: 401 nM
[10]
  IC50: 20 nM

## COC(=O)c1ccc(-c2cc(Cl)cc(Oc3c(C(F)(F)F)ccn(Cc4n[nH]c(=O)n4C)c3=O)c2)cc1
[1]
  EC50: 11 nM
[2]
  CC50: 47900 nM
[3]
  selectivity ratio: 4360
[4]
  EC50: 11 nM
[5]
  EC50: 19 nM
[6]
  EC50: 17 nM
[7]
  EC50: 760 nM
[8]
  EC50: 16 nM
[9]
  EC50: 177 nM
[10]
  IC50: 30 nM

## Cn1c(Cn2ccc(C(F)(F)F)c(Oc3cc(Cl)cc(-c4ccc(N)nc4)c3)c2=O)n[nH]c1=O
[1]
  EC50: 209 nM
[2]
  CC50: 32100 nM
[3]
  selectivity ratio: 154

## Cn1c(Cn2ccc(C(F)(F)F)c(Oc3cc(Cl)cc(-c4cnc(N)nc4)c3)c2=O)n[nH]c1=O
[1]
  EC50: 168 nM
[2]
  CC50: 3240 nM
[3]
  selectivity ratio: 19

## Cn1c(Cn2ccc(C(F)(F)F)c(Oc3cc(Cl)cc(-c4ccc([N+](=O)[O-])cc4)c3)c2=O)n[nH]c1=O
[1]
  EC50: 31 nM
[2]
  CC50: 45400 nM
[3]
  selectivity ratio: 1460

## Cn1c(Cn2ccc(C(F)(F)F)c(Oc3cc(Cl)cc(-c4ccc(N)cc4)c3)c2=O)n[nH]c1=O
[1]
  EC50: 158 nM
[2]
  CC50: 33700 nM
[3]
  selectivity ratio: 213

## Cn1c(Cn2ccc(C(F)(F)F)c(Oc3cc(Cl)cc(C#N)c3)c2=O)n[nH]c1=O [DORAVIRINE]
[1]
  EC50: 8 nM
[2]
  CC50: > 294000 nM
[4]
  EC50: 13 nM
[5]
  EC50: 14 nM
[6]
  EC50: 27 nM
[7]
  EC50: 2080 nM
[8]
  EC50: 37 nM
[9]
  EC50: 128 nM

## Cn1c(Cn2ccc(C(F)(F)F)c(Oc3cc(Cl)cc(-c4cccnc4)c3)c2=O)n[nH]c1=O
[1]
  EC50: 61 nM
[2]
  CC50: 12800 nM
[3]
  selectivity ratio: 210

## Cn1c(Cn2ccc(C(F)(F)F)c(Oc3cc(Cl)cc(-c4ccc(C(N)=O)cc4)c3)c2=O)n[nH]c1=O
[1]
  EC50: 261 nM
[2]
  CC50: 74200 nM
[3]
  selectivity ratio: 284
